According to patent publication US12233144B2, “Method for stabilizing retinoic acid precursors and a skin benefit composition with stabilized retinoic acid precursors” (Conopco, Inc., priority 2016, dated 2025):
Where two headings read alike, the source gives them in different places.

Assays:
[1] = Storage stability of retinoic acid precursor (RAP) in caprylic capric triglyceride at 45° C, RAP amount by HPLC; assay type: physicochemical; details: for Initial RAP Concentration, Week 0 / RAP Concentration, Week 1 / RAP Concentration, Week 4 / RAP Concentration, Week 20: Example 1, caprylic capric triglyceride carrier, storage 45° C, ER 0.35% where present
Protocol: Compositions were prepared with caprylic capric triglyceride as the carrier to 100%. Storage was maintained at 45° C. Assessment of RAP amount in the formulae was achieved via HPLC using ASTM Standards. […]

[2] = as above; assay type: physicochemical; details: Example 3; RAP alone, no SBA (ratio —)

Row | Compound | Week 4 % Remaining ([1]; 4 week, 0.1 %) [%] | Week 20 % Remaining ([1]; 20 week, 0.1 %) [%] | Initial RAP Concentration, Week 0 [1] [%] | RAP Concentration, Week 1 [1] | RAP Concentration, Week 4 [1] [%] | RAP Concentration, Week 20 [1] [%] | Week 0 Concentration [2] | Week 1 Concentration [2] | Week 4 Concentration [2] | Week 4 % Remaining [1] [%] | Week 20 % Remaining [1] [%] | Effect on stability of the RAPs (in words) [1]
1 | CC1=C(/C=C/C(C)=C/C=C/C(C)=C/CO)C(C)(C)CCC1 [Retinol] | 1 | 0 | 0.1 | 0.042% | 0.001 | 0 | 0.1 | 0.042 | 0.001 | – | – | –
2 | CCC(=O)OC/C=C(C)/C=C/C=C(C)/C=C/C1=C(C)CCCC1(C)C [Retinyl Propionate] | – | – | 0.38 | No | 0.32 | 0 | 0.38 | 0.38 | 0.32 | 84 | 0 | –
3 | COc1ccc(C(=O)COC(=O)\C=C(C)/C=C/C=C(C)/C=C/C2=C(C)CCCC2(C)C)cc1 [Retextra ®, hydroxyanasatil retinoate] | – | – | 0.36 | 0.14% | 0 | 0 | – | – | – | 0 | 0 | –
4 | CCc1ccc(O)cc1O [4-ethyl resorcinol] | – | – | – | – | – | – | – | – | – | – | – | improves the stability of the RAPs by preventing oxidation
